“Also recorded” adds a separate entry of the source.

For one data set, the system named is radial dendrites. Particulars: intracochlear perfusion ten minutes prior to or concomitant with AMPA perfusion; cited from earlier work.
A further data set concerns auditory nerve fibers. Description: Single unit recording of auditory nerve fibers during intracochlear perfusion (salicylate-induced excitation). It is filed as in vivo, guinea pig. As for the experimental part: (§1) Experiments were performed on adult guinea pigs weighing from about 250 g to 300 g. The animals were anaesthetized with urethane (1.4 g/kg, i.p.) and artificially respired. Supplemental doses of urethane (0.35 g/kg, i.p.) were administered every 2 hr, or more often if the animal withdrew its paw in response to pressure applied to the paw. The rectal temperature was maintained at about 38.5±1° C., and heart rate (normal range 260-330 beats/min) monitored using EKG electrodes. The external auditory canal was opened near the tympanic annulus, exposing the tympanic membrane and allowing sound to reach the drum without any obstruction. At the end of the experiment, the animals were euthanized by intracardiac injection of an overdose of sodium pentobarbitone.
Salicylate Tinnitus Model. Salicylate, the active component of aspirin, is of special concern in auditory science because it induces tinnitus in humans. The efficacy of agents to treat tinnitus was tested by measuring firing rate of the auditory nerve fibers in presence of salicylate.
Briefly, the test solutions were applied into the cochlea using a multi-barrel perfusion pipette (ASI Instruments) placed into a hole made in the basal turn scala tympani and allowed to flow out of the cochlea through a hole (0.2 mm diameter) made at the apex. The cochlear nerve was exposed using a posterior fossa approach. Extracellular action potentials from single auditory nerve fibers were recorded with glass microelectrodes. Once a single unit was isolated, spontaneous activity was averaged over 10 seconds. The unit's tuning curves were then determined by a computer-controlled, threshold-tracking program using a 200 ms tone burst presented at 3/s. The threshold criterion was a difference of 10 spikes/s, i.e., 2 spikes difference between the tone (200 ms) and non-tone (200 ms) counting intervals. The program determined the characteristic frequency (CF) and the frequency tuning of the fiber by measuring the Q10dB defined as the CF divided by the bandwidth at 10 dB above the CF threshold.
An experiment was carried out to determine the ability of perfused Glutamate antagonists to suppress salicylate-induced excitation.

Data set [1] has as its system cochlea. Nature of the data set: CAP amplitude after acute intracochlear perfusion. The following applies: 8 kHz tone burst stimulation, mean of 5 animals. It is filed as in vivo, guinea pig. The procedure:
as §1

For data set [2], the system named is cochlea. Description: CAP amplitude after chronic round window perfusion. It is filed as in vivo, guinea pig. Particulars: 8 kHz tone burst stimulation, mean of 5 animals. The procedure:
as §1

For another data set, the system named is inner ear. The following applies: acute cochlear perfusion; Wang et al., Neuroscience 2002; cited from earlier work.
For data set [3], the system named is rats. Nature of the data set: Behavioral model of salicylate-induced tinnitus (active avoidance task). The procedure:
To verify that the excitatory action of sodium-salicylate on the auditory nerve fibers results in perception of tinnitus, a behavioral model was designed in rats based upon an active avoidance task. Animals were trained to respond to a conditioned stimulus consisting of a 10 kHz tone burst of 3 s duration.
(§2) CAP threshold shifts were calculated as the difference in dB between the auditory threshold at day 0 and the auditory threshold at each day. To avoid changes due to hearing loss, the intensity of sound eliciting behavioral responses was adjusted as a function of CAP threshold shift.
Gelfoam placed on the round window was used to apply drugs into the fluid of the cochlea.
To support the hypothesis that salicylate induced false positive via cochlear NMDA receptors, we applied other NMDA antagonists into the perilymphatic fluids using gelfoam placed on the round window of both ears.

For data set [4], the system named is rats. Particulars: 300 mg/kg/day i.p. during 4 days; frequency range 2 to 26 KHz. The procedure:
CAP thresholds were measured using an electrode chronically implanted on round window in response to a tone burst of 1 ms rise/fall time and 9 ms duration presented at a rate of 10 times per second.
as §2

Another data set relates to guinea pigs. Particulars: intracochlear perfusion; cited from earlier work.
[5] abbreviates: 300 mg/kg/day i.p., daily during 4 days.
Where [6] appears, read: intracochlear perfusion, 50 μM, 5 mM NaSal.

As to `O=c1[nH]c2cc([N+](=O)[O-])c([N+](=O)[O-])cc2[nH]c1=O` [DNQX, 6-7-dinitorquinoxaline-2,3-dione], the radial dendrite swelling result in the data set with radial dendrites was “prevented most of the occurrence of radial dendrite swelling”.

Regarding `COc1ccc2c(c1)c(CC(=O)O)c(C)n2C(=O)c1ccc(Cl)cc1` [indomethacin], the “spontaneous activity of the auditory nerve fiber” value (“spontaneous activity” below) in the data set on auditory nerve fibers (intracochlear perfusion, 100 μM in artificial perilymph, fiber coding for 8 kHz) is “did not change the spontaneous activity of the auditory nerve fiber”.

As to `Nc1nc2ccc(OC(F)(F)F)cc2s1` [Riluzole], the “mean amplitude of the CAP” value in the data set with cochlea [1] is on record as “reduce the CAP amplitude in a dose-dependent manner”; with cochlea [2], “reduced the CAP amplitude in the dose dependent manner”. The “hearing after noise induced hearing loss” value with inner ear is recorded as “rescues hearing after noise induced hearing loss”.

Turning to Dizocilpine [MK 801], in the data set with auditory nerve fibers (intracochlear perfusion, 10 μM), the “neural excitation of auditory nerve induced by sodium-salicylate” value (shortened to “neural excitation”) is reported as “suppressed neural excitation induced by sodium-salicylate” and the “spontaneous activity” value is recorded as “had no effect on spontaneous activity”. For the same molecule, the “score under salicylate treatment” value with rats [3] (10 μM, gelfoam on the round window) is “reduction of the score still been unchanged”. In addition, the “number of false positive responses induced by salicylate” value with rats [3] (10 μM, gelfoam on the round window, day 4 of salicylate treatment, n=10) is reported as “drastically reduced the occurrence of the false positive responses”.

For the molecule `O=C([O-])c1ccccc1O.[Na+]` [sodium-salicylate], the “hearing loss (CAP threshold)” value in the data set with rats [4] stood at 30 dB. Moreover, in the data set on auditory nerve fibers (intracochlear application, 5 mM), the “spontaneous firing of the auditory nerve fibers” value is recorded as “reversibly increased spontaneous firing of the auditory nerve fibers”. Besides, in the data set with rats [3] (setting [5]), the “number of false positives (responses without sound)” value is “drastic increase of the number of false positives” and the “score (positive responses to sound, % of total)” value was “reversible reduction of the score”. Besides, the “score (positive responses to sound)” value in the data set with rats [3] (salicylate days 2 to 5, sound intensity adjusted as a function of CAP threshold shift) is “no significant decrease in the score was observed”. For the same molecule, in the data set with rats [3] (salicylate treatment, sound intensity adjusted as a function of CAP threshold shift), the false positive responses entry was “false positive responses still remained”.

With `O=C(O)c1cc(=O)c2ccccc2[nH]1` [kynurenate], in the data set on guinea pigs, the “protection against sound-induced synaptic damage” value was “protects against sound-induced synaptic damage”.

Regarding `CNC(=O)N1N=C(c2ccc(N)cc2)c2cc3c(cc2C[C@H]1C)OCO3` [GYKI 53784], in the data set on auditory nerve fibers (intracochlear perfusion, 50 μM), the “auditory nerve fiber activity evoked by sound” value was “blocked both spontaneous activity and those evoked induced by sodium-salicylate or sound”; the “spontaneous activity” value is “blocked both the spontaneous and the evoked activity”. The “neural excitation” value in the data set on auditory nerve fibers (setting [6]) is “blocked both the spontaneous and the evoked activity”.

As to `CC1CCCCC1(c1cccs1)N1CCCCC1` (stereo not shown) [gacyclidine, Gacyclidine], in the data set on auditory nerve fibers (intracochlear perfusion, 50 μM), the “spontaneous activity” value is given as “had no effect on spontaneous activity; also recorded: not the spontaneous activity of the fiber”. In addition, the “neural excitation” value in the data set with auditory nerve fibers (setting [6]) was “suppressed neural excitation induced by sodium-salicylate; also recorded: suppressed neural excitation of auditory nerve induced by Na Salicylate”. Further, the “score under salicylate treatment” value in the data set with rats [3] (50 μM, gelfoam on the round window) is given as “reduction of the score still been unchanged”.
